Assay results reported in US10517889B2, “Modulators of SMAD7 expression” (Ionis Pharmaceuticals, Inc., priority 2017, dated 2019).
pIC50: −log10 of the molar value. Strand notation (5' to 3'): a small letter for the sugar, then the base; units joined by * are phosphorothioate-linked, units joined directly phosphodiester-linked; [ ] holds rarer units or linkages, { } end groups; capitals alone tell only the bases. k = constrained ethyl (cEt); [5mC] = 5-methylcytosine; d = 2'-deoxy (DNA)

Columns and labels:
human SMAD7 mRNA [1] = assay: Antisense inhibition of human SMAD7 mRNA expression in Hep3B cells by 3-10-3 cEt gapmers, 10,000 nM, electroporation (Example 2); assay type: cell-based; settings: approximately 24 hours
Procedure, shortened: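 SMAD7 mRNA was measured by real-time PCR (RTS5062) with RiboGreen total-RNA normalization, about 24 h after 10,000 nM gapmer was delivered by electroporation into Hep3B cells at 20,000 per well. Gapmers were 16-mer 3-10-3 cEt, fully phosphorothioate; values are % inhibition versus untreated controls.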

human SMAD7 mRNA [2] = assay: Dose-dependent inhibition of human SMAD7 mRNA expression in Hep3B cells (Example 3, Study 1 and 2); assay type: cell-based; settings: electroporation; for % inhibition of SMAD7 mRNA expression: approximately 16 hours; for pIC50: Study 2 (740-20000 nM)
Description: The antisense oligonucleotides were tested in a series of experiments that had similar culture conditions as described below.
(§1) Cells were plated at a density of 20,000 cells per well and transfected using electroporation with 0.31 μM, 1.25 μM, 5.00 μM, or 20.00 μM concentrations of antisense oligonucleotide, as specified in the Tables below. ION 483663 was included in the assays for comparison. After a treatment period of approximately 16 hours, RNA was isolated from the cells and SMAD7 mRNA levels were measured by quantitative real-time PCR. Primer probe set RTS5062 was used to measure human SMAD7 mRNA levels. SMAD7 mRNA levels were adjusted according to total RNA content, as measured by RIBOGREEN®. Results are presented as percent inhibition of SMAD7 mRNA expression, relative to untreated control cells.
The half maximal inhibitory concentration (IC50) of each oligonucleotide is also presented.
as §1, with “0.74” for “0.31”, “2.22” for “1.25”, “6.67” for “5.00”, “below.” for “below. ION 483663 was included in the assays for comparison.”

[3] = Hep3B cells, electroporation with 10,000 nM antisense oligonucleotide, primer probe set RTS5062, relative to untreated control cells
[4] = 740 nM, Study 2, relative to untreated control cells
[5] = Hep3B cells, electroporation with 10,000 nM antisense oligonucleotide, RTS5062, percent inhibition of SMAD7 mRNA relative to untreated control cells

## 799143 (antisense kT*kG*kG*dG*dT*dT*dA*dT*dG*dA*d[5mC]*dG*dG*kA*k[5mC]*k[5mC]) [compound 799143]
Human SMAD7 mRNA [1]; [3]
  % inhibition of SMAD7 mRNA expression: 66%
Human SMAD7 mRNA [1]; SMAD7 mRNA, Hep3B cells, 10,000 nM antisense oligonucleotide, electroporation, primer probe set RTS5062, relative to untreated control cells
  % Inhibition: 61%
Human SMAD7 mRNA [2]; [4]
  % inhibition of SMAD7 mRNA expression: 87%
Human SMAD7 mRNA [2]; 2220 nM, Study 2
  % inhibition of SMAD7 mRNA expression: 93%
Human SMAD7 mRNA [2]; 6670.0 nM, Study 2
  % inhibition of SMAD7 mRNA expression: 95%
Human SMAD7 mRNA [2]; 20000.0 nM, Study 2
  % inhibition of SMAD7 mRNA expression: 96%
Human SMAD7 mRNA [2]
  pIC50: 5.70

## 799159 (antisense kG*kT*kG*dT*dA*dT*dG*dA*dG*dT*dT*dG*dT*kA*kG*kA) [compound 799159]
Human SMAD7 mRNA [1]; [3]
  % Inhibition: 56%
Human SMAD7 mRNA [2]; [4]
  % inhibition of SMAD7 mRNA expression: 43%
Human SMAD7 mRNA [2]; 2220 nM, Study 2
  % inhibition of SMAD7 mRNA expression: 55%
Human SMAD7 mRNA [2]; 6670.0 nM, Study 2
  % inhibition of SMAD7 mRNA expression: 78%
Human SMAD7 mRNA [2]; 20000.0 nM, Study 2
  % inhibition of SMAD7 mRNA expression: 90%
Human SMAD7 mRNA [2]
  pIC50: 4.72

## 799168 (antisense kG*k[5mC]*kT*dA*dA*dG*dA*dA*d[5mC]*dA*dG*dT*dG*kT*k[5mC]*kG) [compound 799168]
Human SMAD7 mRNA [1]; [3]
  % inhibition of SMAD7 mRNA expression: 75%
Human SMAD7 mRNA [2]; [4]
  % inhibition of SMAD7 mRNA expression: 15%
Human SMAD7 mRNA [2]; 2220 nM, Study 2
  % inhibition of SMAD7 mRNA expression: 13%
Human SMAD7 mRNA [2]; 6670.0 nM, Study 2
  % inhibition of SMAD7 mRNA expression: 36%
Human SMAD7 mRNA [2]; 20000.0 nM, Study 2
  % inhibition of SMAD7 mRNA expression: 54%
Human SMAD7 mRNA [2]
  pIC50: 5.30

## 799312 (antisense k[5mC]*kA*kT*d[5mC]*dT*dT*dT*dA*dA*dG*d[5mC]*dA*d[5mC]*kG*k[5mC]*kT) [compound 799312]
Human SMAD7 mRNA [1]; [5]
  % Inhibition: 66%
Human SMAD7 mRNA [2]; [4]
  % inhibition of SMAD7 mRNA expression: 23%
Human SMAD7 mRNA [2]; 2220 nM, Study 2
  % inhibition of SMAD7 mRNA expression: 46%
Human SMAD7 mRNA [2]; 6670.0 nM, Study 2
  % inhibition of SMAD7 mRNA expression: 49%
Human SMAD7 mRNA [2]; 20000.0 nM, Study 2
  % inhibition of SMAD7 mRNA expression: 69%
Human SMAD7 mRNA [2]
  pIC50: 5.40

## 799318 (antisense kG*kT*kG*dG*dA*dT*dT*dT*dG*dA*dA*dA*dA*kG*kG*kG) [compound 799318]
Human SMAD7 mRNA [1]; [5]
  % Inhibition: 58%
Human SMAD7 mRNA [2]; [4]
  % inhibition of SMAD7 mRNA expression: 12%
Human SMAD7 mRNA [2]; 2220 nM, Study 2
  % inhibition of SMAD7 mRNA expression: 40%
Human SMAD7 mRNA [2]; 6670.0 nM, Study 2
  % inhibition of SMAD7 mRNA expression: 70%
Human SMAD7 mRNA [2]; 20000.0 nM, Study 2
  % inhibition of SMAD7 mRNA expression: 75%
Human SMAD7 mRNA [2]
  pIC50: 4.96

## 799321 (antisense kA*kT*k[5mC]*dT*dG*dG*dA*d[5mC]*dA*dG*dT*d[5mC]*dT*kG*k[5mC]*kT) [compound 799321]
Human SMAD7 mRNA [1]; Hep3B cells, electroporation, 10,000 nM antisense oligonucleotide, RTS5062, relative to untreated control cells
  % inhibition of SMAD7 mRNA expression: 93%
Human SMAD7 mRNA [2]; [4]
  % inhibition of SMAD7 mRNA expression: 0%
Human SMAD7 mRNA [2]; 2220 nM, Study 2
  % inhibition of SMAD7 mRNA expression: 5%
Human SMAD7 mRNA [2]; 6670.0 nM, Study 2
  % inhibition of SMAD7 mRNA expression: 36%
Human SMAD7 mRNA [2]; 20000.0 nM, Study 2
  % inhibition of SMAD7 mRNA expression: 67%
Human SMAD7 mRNA [2]
  pIC50: > 6.15

## 799322 (antisense kG*kG*kA*dG*dG*dG*dT*dA*dT*dG*d[5mC]*dA*d[5mC]*kA*k[5mC]*kT) [compound 799322]
Human SMAD7 mRNA [1]; [3]
  % inhibition of SMAD7 mRNA expression: 83%
Human SMAD7 mRNA [2]; [4]
  % inhibition of SMAD7 mRNA expression: 89%
Human SMAD7 mRNA [2]; 2220 nM, Study 2
  % inhibition of SMAD7 mRNA expression: 90%
Human SMAD7 mRNA [2]; 6670.0 nM, Study 2
  % inhibition of SMAD7 mRNA expression: 96%
Human SMAD7 mRNA [2]; 20000.0 nM, Study 2
  % inhibition of SMAD7 mRNA expression: 96%
Human SMAD7 mRNA [2]
  pIC50: 5.70

## 799364 (kT*k[5mC]*k[5mC]*dG*dA*dG*dT*dT*dA*dT*d[5mC]*d[5mC]*d[5mC]*k[5mC]*kA*kT; antisense) [compound 799364]
Human SMAD7 mRNA [1]; [3]
  % inhibition of SMAD7 mRNA expression: 73%
Human SMAD7 mRNA [2]; [4]
  % inhibition of SMAD7 mRNA expression: 39%
Human SMAD7 mRNA [2]; 2220 nM, Study 2
  % inhibition of SMAD7 mRNA expression: 54%
Human SMAD7 mRNA [2]; 6670.0 nM, Study 2
  % inhibition of SMAD7 mRNA expression: 67%
Human SMAD7 mRNA [2]; 20000.0 nM, Study 2
  % inhibition of SMAD7 mRNA expression: 88%
Human SMAD7 mRNA [2]
  pIC50: 5.52

## 799365 (k[5mC]*kT*k[5mC]*d[5mC]*dG*dA*dG*dT*dT*dA*dT*d[5mC]*d[5mC]*k[5mC]*k[5mC]*kA; antisense) [compound 799365]
Human SMAD7 mRNA [1]; [3]
  % inhibition of SMAD7 mRNA expression: 61%
Human SMAD7 mRNA [2]; [4]
  % inhibition of SMAD7 mRNA expression: 11%
Human SMAD7 mRNA [2]; 2220 nM, Study 2
  % inhibition of SMAD7 mRNA expression: 39%
Human SMAD7 mRNA [2]; 6670.0 nM, Study 2
  % inhibition of SMAD7 mRNA expression: 73%
Human SMAD7 mRNA [2]; 20000.0 nM, Study 2
  % inhibition of SMAD7 mRNA expression: 94%
Human SMAD7 mRNA [2]
  pIC50: 5.40
